From US20230365563A1, “QUINAZOLINE COMPOUND AND APPLICATION THEREOF” (SHANGHAI PHARMACEUTICALS HOLDING CO., LTD., priority 2020, published 2023)
Where a name gives a salt, the structure may show the parent alone.

Legend:
KRAS-G12D and SOS1 = target: T1, KRAS-G12D and SOS1 (Homo sapiens, UniProt P01116, G12D); test: Inhibition of KRAS-G12D/SOS1 binding (Cisbio binding kit, 665/615 ratio), Effect Embodiment A; settings: read-out: GTP-KRAS-G12D:SOS1 IC50
T1 construct: purchased
Summary of the method: (§1)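 Compounds underwent 3-fold dilution from their storage solutions (11 points), were transferred to assay wells in duplicate with DMSO held at 1% final, and were briefly centrifuged.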

KRAS_WT and SOS1 = target: T2, KRAS_WT and SOS1 (Homo sapiens, UniProt P01116); test: Inhibition of KRAS_WT/SOS1 binding (Cisbio binding kit, 665/615 ratio), Effect Embodiment C; settings: read-out: GTP-KRAS-WT:SOS1 IC50
T2 construct: purchased
T2 sequence (P01116 1-188 isoform P01116-2): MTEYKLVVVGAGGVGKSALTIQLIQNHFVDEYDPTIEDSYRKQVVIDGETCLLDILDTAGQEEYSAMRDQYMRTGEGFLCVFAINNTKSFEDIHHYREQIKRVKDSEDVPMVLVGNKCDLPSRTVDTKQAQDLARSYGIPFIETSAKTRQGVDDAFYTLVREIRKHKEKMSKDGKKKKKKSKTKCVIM
Summary of the method: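 Compounds tested as 3-fold, 11-point dilutions in duplicate at 1% DMSO final against the KRAS_WT/SOS1 binding system. IC50 derived by nonlinear regression fit.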

KRAS_G12D and cRAF = target: T3, KRAS_G12D and cRAF (Homo sapiens, UniProt P01116, G12D); test: Inhibition of KRAS_G12D/cRAF binding (Cisbio binding kit, 665/615 ratio), Effect Embodiment B; settings: read-out: GTP-KRAS-G12D:CRAF IC50
T3 construct: purchased
T3 sequence (P01116 1-188 isoform P01116-2 G12D): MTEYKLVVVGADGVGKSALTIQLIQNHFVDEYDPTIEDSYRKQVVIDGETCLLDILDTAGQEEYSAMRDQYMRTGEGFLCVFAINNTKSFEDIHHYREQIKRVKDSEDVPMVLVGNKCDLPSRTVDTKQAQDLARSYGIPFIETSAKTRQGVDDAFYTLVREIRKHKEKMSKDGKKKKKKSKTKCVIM
Summary of the method: as §1

T1 sequence (P01116 1-188 isoform P01116-2 G12D): as above

IC50 (KRAS-G12D and SOS1) [nM] | IC50 (KRAS_WT and SOS1) [nM] | IC50 (KRAS_G12D and cRAF) [nM] | Structure (SMILES)
22.4 | 3040 | 185 | CCNCCCOc1nc(N2CC3CCC(C2)N3)c2cc(Cl)c(-c3cc(O)cc4ccccc34)c(F)c2n1 (single isomer, unassigned) [Compound 105, dihydrochloride]
39.1 | 1770 | 158 | Oc1cc(-c2c(Cl)cc3c(N4CC5CCC(C4)N5)nc(OCCCN4C5CCC4COC5)nc3c2F)c2ccccc2c1 (single isomer, unassigned) [Compound 106, (4S or R)-4-(2-(3-(3-oxa-8-azabicyclo[3.2.1]octan-8-yl)propoxy)-4-((1R,5S)-3,8-diazabicyclo[3.2.1]octan-3-yl)-6-chloro-8-fluoroquinazolin-7-yl)naphthalen-2-ol dihydrochloride]
47 | 3490 | 160 | Oc1cc(-c2c(Cl)cc3c(N4CC5CCC(C4)N5)nc(OCC(F)(F)CN4CCCC4)nc3c2F)c2ccccc2c1 (single isomer, unassigned) [Compound 107, 4-((S or R)-4-((1R,5S)-3,8-diazabicyclo[3.2.1]octan-3-yl)-6-chloro-2-(2,2-difluoro-3-(pyrrolidin-1-yl)propoxy)-8-fluoroquinazolin-7-yl)naphthalen-2-ol dihydrochloride]
56.3 | 2300 | 212 | C[C@@H]1CCCN1CCCOc1nc(N2CC3CCC(C2)N3)c2cc(Cl)c(-c3cc(O)cc4ccccc34)c(F)c2n1 (single isomer, unassigned) [Compound 108a, 4-((S or R)-4-((1R,5S)-3,8-diazabicyclo[3.2.1]octan-3-yl)-6-chloro-8-fluoro-2-(3-((R)-2-methylpyrrolidin-1-yl)propoxy)quinazolin-7-yl)naphthalen-2-ol dihydrochloride]
39.6 | 1530 | 143 | CN1CC(C)(COc2nc(N3CC4CCC(C3)N4)c3cc(Cl)c(-c4cc(O)cc5ccccc45)c(F)c3n2)C1 (single isomer, unassigned) [Compound 110, 4-((S or R)-4-((1R,5S)-3,8-diazacyclo[3.2.1]octan-3-yl)-6-chloro-2-((1,3-dimethylnonanetriacyl)methoxy)-8-fluoroquinazin-7-yl)naphthalen-2-ol ditrifluoroacetate]
22.4 | 1110 | 107 | CN(CCCCN1CCN(CCCCN)CC1)CCCOc1nc(N2CC3CCC(C2)N3)c2cc(Cl)c(-c3cc(O)cc4ccccc34)c(F)c2n1 (single isomer, unassigned) [Compound 111, (S or R) 4-(2-(3-((4-(4-aminobutyl)piperazin-1-yl)butyl)(methyl)amino)propoxy)-4-((1R,5S)-3,8-diazabicyclo[3.2.1]octan-3-yl)-6-chloro-8-fluoroquinazolin-7-yl)naphthalen-2-ol pentahydrochloride]
57.4 | 2520 | 119 | CN1CCC1CCOc1nc(N2CC3CCC(C2)N3)c2cc(Cl)c(-c3cc(O)cc4ccccc34)c(F)c2n1 (single isomer, unassigned) [Compound 112a, 4-((S or R)-4-((1R,5S)-3,8-diazabicyclo[3.2.1]octan-3-yl)-6-chloro-8-fluoro-2-(2-((S or R)-1-methylazetidin-2-yl)ethoxy)quinazolin-7-yl)naphthalen-2-ol dicarboxylate]
51.8 | 4000 | 130 | CCCCN(C)CCCOc1nc(N2CC3CCC(C2)N3)c2cc(Cl)c(-c3cc(O)cc4ccccc34)c(F)c2n1 (single isomer, unassigned) [Compound 113, 4-((S or R)-4-((1R,5S)-3,8-diazabicyclo[3.2.1]octan-3-yl)-2-(3-(butyl(methyl)amino)propoxy)-6-chloro-8-fluoroquinazolin-7-yl)naphthalen-2-ol hydrochloride]
37.2 | 4530 | 100 | Oc1cc(-c2c(Cl)cc3c(N4CC5CCC(C4)N5)nc(OCCN4CCCCC4)nc3c2F)c2ccccc2c1 (single isomer, unassigned) [Compound 114, 4-((S or R)-4-((1R,5S)-3,8-diazabicyclo[3.2.1]octan-3-yl)-6-chloro-8-fluoro-2-(2-(piperidin-1-yl)ethoxy)quinazolin-7-yl)naphthalen-2-ol dihydrochloride]
65.7 | 3380 | 189 | Oc1cc(-c2c(Cl)cc3c(N4CC5CCC(C4)N5)nc(OCCN4CCCC4)nc3c2F)c2ccccc2c1 (single isomer, unassigned) [Compound 116, 4-((S or R)-4-((1R,5S)-3,8-diazabicyclo[3.2.1]octan-3-yl)-6-chloro-8-fluoro-2-(2-(pyrrolidin-1-yl)ethoxy)quinazolin-7-yl)naphthalen-2-ol dihydrochloride]
59.3 | 2130 | 134 | Oc1cc(-c2c(Cl)cc3c(N4CC5CCC(C4)N5)nc(OCCC4(N5CCCC5)CC4)nc3c2F)c2ccccc2c1 (single isomer, unassigned) [Compound 117, 4-((S or R)-4-((1R,5S)-3,8-diazabicyclo[3.2.1]octan-3-yl)-6-chloro-8-fluoro-2-(2-(1-(pyrrolidin-1-yl)cyclopropyl)ethoxy)quinazolin-7-yl)naphthalen-2-ol dihydrochloride]
19.5 | 2410 | 53.7 | CN(C)CC(C)(C)COc1nc(N2CC3CCC(C2)N3)c2cc(Cl)c(-c3cc(O)cc4ccccc34)c(F)c2n1 (single isomer, unassigned) [Compound 118, 4-((S or R)-4-((1R,5S)-3,8-diazabicyclo[3.2.1]octan-3-yl)-6-chloro-2-(3-(dimethylamino)-2,2-dimethylpropoxy)-8-fluoroquinazolin-7-yl)naphthalen-2-ol dihydrochloride]
14.5 | 160 | 14.4 | Oc1cc(-c2c(Cl)cc3c(N4CC5CCC(C4)N5)nc(OCC4(CN5C6CCC5COC6)CC4)nc3c2F)c2ccccc2c1 (single isomer, unassigned) [Compound 119, 4-((7S or R)-2-((1-((3-oxa-8-azabicyclo[3.2.1]octan-8-yl)methyl)cyclopropyl)methoxy)-4-((1R,5S)-3,8-diazabicyclo[3.2.1]octan-3-yl)-6-chloro-8-fluoroquinazolin-7-yl)naphthalen-2-ol formate]
36.5 | 2670 | 72.7 | CC(C)(COc1nc(N2CC3CCC(C2)N3)c2cc(Cl)c(-c3cc(O)cc4ccccc34)c(F)c2n1)CN1C2CCC1COC2 (single isomer, unassigned) [Compound 120, 4-((7S or R)-2-(3-(3-oxa-8-azabicyclo[3.2.1]octan-8-yl)-2,2-dimethylpropoxy)-4-((1R,5S)-3,8-diazabicyclo[3.2.1]octan-3-yl)-6-chloro-8-fluoroquinazolin-7-yl)naphthalen-2-ol dihydrochloride]
75.8 | 2890 | 149 | Oc1cc(-c2c(Cl)cc3c(N4CC5CCC(C4)N5)nc(OCCN4C5CCC4COC5)nc3c2F)c2ccccc2c1 (single isomer, unassigned) [Compound 124, 4-((7S or R)-2-(2-(3-oxa-8-azabicyclo[3.2.1]octan-8-yl)-ethoxy)-4-((1R,5S)-3,8-diazabicyclo[3.2.1]octan-3-yl)-6-chloro-8-fluoroquinazolin-7-yl)naphthalen-2-ol dihydrochloride]
52.7 | 1680 | 170 | C[C@@H]1CN(CCCOc2nc(N3CC4CCC(C3)N4)c3cc(Cl)c(-c4cc(O)cc5ccccc45)c(F)c3n2)C[C@H](C)O1 (single isomer, unassigned) [Compound 125, 4-((S or R)-4-((1R,5S)-3,8-diazacyclo[3.2.1]octan-3-yl)-6-chloro-2-(3-((2S,6R)-2,6-dimethylmorpholine)propoxy)-8-fluoroquinolin-7-yl)naphthalen-2-ol hydrochloride]

Structure (SMILES) | IC50 (KRAS-G12D and SOS1) [nM] | IC50 (KRAS_WT and SOS1) [nM] | IC50 (KRAS_G12D and cRAF) [nM]
Oc1cc(-c2c(Cl)cc3c(N4CC5CCC(C4)N5)nc(OCC(F)CN4CCCC4)nc3c2F)c2ccccc2c1 (single isomer, unassigned) [Compound 109a, 4-((S or R)-4-((1R,5S)-3,8-diazabicyclo[3.2.1]octan-3-yl)-6-chloro-8-fluoro-2-((S or R)-2-fluoro-3-(pyrrolidin-1-yl)propoxy)quinazolin-7-yl)naphthalen-2-ol hydrochloride] | 27 | 2570 | 89.3
Oc1cc(-c2c(Cl)cc3c(N4CC5CCC(C4)N5)nc(OCC(F)CN4CCCC4)nc3c2F)c2ccccc2c1 (single isomer, unassigned) [Compound 109b, 4-((S or R)-4-((1R,5S)-3,8-diazabicyclo[3.2.1]octan-3-yl)-6-chloro-8-fluoro-2-((R or S)-2-fluoro-3-(pyrrolidin-1-yl)propoxy)quinazolin-7-yl)naphthalen-2-ol hydrochloride] | 58.2 | 5350 | 208
CC(C)CN(C)CCCOc1nc(N2C[C@H]3CC[C@@H](C2)N3)c2cc(Cl)c(-c3cc(O)cc4ccccc34)c(F)c2n1 (single isomer, unassigned) [Compound 115, 4-((S or R)-4-((1R,5S)-3,8-diazacyclo[3.2.1]octan-3-yl)-6-chloro-8-fluoro-2-(3-(isobutyl(methyl)amino)propoxy)quinazolin-7-yl)naphthalen-2-ol dihydrochloride] | 67.8 | 4130 | 130
